The text below walks through data of ChEMBL document CHEMBL1201862, “PubChem BioAssay data set” (2004).

The structures appear in SMILES notation.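 48-hour exposure; five concentrations; linearly interpolated endpoints. GI50 marks 50% less growth.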 The source made the active and inactive calls. Cut-off read from the data, not from the text of the source: active = GI50 up to about 1.1 µM and inactive = higher.

Test systems include MDA-MB-231; OVCAR-5; HOP-92; KM-20L2; PC-3; MOLT-4; HCT-116; SNB-75; HCT-15; T47D; SK-MEL-28; OVCAR-4; HCC 2998; MDA-MB-435; OVCAR-8; A498; NCI-H460; CCRF-CEM; Hs-578T; SNB-19.
Assay in all cases: NCI-60 cell line screen, 48 h

`Cc1nc2ccc(NCCN(C)C)c3c(=O)c4ccccc4n1c23`: the GI50 in the assay on MDA-MB-231 is 1.05 µM (active); with OVCAR-5, 4.9 µM (inactive); in the assay with HOP-92 it was 2.25 µM (inactive); in the assay on KM-20L2, 1.99 µM (inactive); in the assay with PC-3, 1.1 µM (active); with MOLT-4 it was 0.348 µM (active). Also, the GI50 in the assay with HCT-116 was 0.851 µM (active); in the assay on SNB-75 it was 3.5 µM (inactive); with HCT-15, 1.25 µM; in the assay on T47D, 12.2 µM (inactive); in the assay with SK-MEL-28, 8.22 µM (inactive); in the assay with OVCAR-4, 1.83 µM (inactive). Moreover, the GI50 in the assay with HCC 2998 is 2.96 µM (inactive); in the assay on MDA-MB-435 it was 2.09 µM (inactive); with OVCAR-8 it was 0.914 µM (active); in the assay with A498, 3.91 µM (inactive); in the assay with NCI-H460, 0.736 µM (active); with CCRF-CEM, 1.22 µM (inactive). Moreover, the GI50 with Hs-578T was 2.55 µM (inactive); in the assay on SNB-19, 4.19 µM (inactive).
As to `CNC(=O)OCc1nc(SC)n(C)c1COC(=O)NC`, the GI50 in the assay with MDA-MB-231 is 187 µM (inactive); in the assay with OVCAR-5, 170 µM (inactive); in the assay on HOP-92, 111 µM (inactive); in the assay on KM-20L2, 177 µM (inactive); in the assay with PC-3, 171 µM (inactive); in the assay on MOLT-4, 26.4 µM (inactive). Moreover, the GI50 is 167 µM (inactive) in the assay with HCT-116; 167 µM (inactive) in the assay with SNB-75; 171 µM in the assay on HCT-15; 171 µM (inactive) in the assay with T47D; 188 µM (inactive) in the assay with SK-MEL-28; 129 µM (inactive) in the assay on OVCAR-4. Besides, the GI50 with HCC 2998 is 122 µM (inactive); in the assay on MDA-MB-435 it was 161 µM (inactive); in the assay with OVCAR-8, 182 µM (inactive); with A498, 198 µM (inactive); in the assay with NCI-H460, 59.6 µM (inactive); in the assay with CCRF-CEM, 44.8 µM (inactive). Besides, the GI50 in the assay on Hs-578T is 195 µM (inactive); with SNB-19, 233 µM (inactive).
On to `CC(C)CCCCCCCCCCCCC(=O)NCC(=O)NC1C(C)OC(Nc2ncnc3c2ncn3C)C(O)C1O` (stereo not given), for which the GI50 with OVCAR-5 was 7.33 µM (inactive); in the assay on HOP-92, 2.41 µM (inactive); in the assay with KM-20L2 it was 4.02 µM (inactive); with MOLT-4 it was > 100 µM (inactive); with HCT-116, 1.54 µM (inactive); in the assay with SNB-75, 2.33 µM (inactive). Further, the GI50 with HCT-15 is > 100 µM; in the assay with SK-MEL-28, > 100 µM (inactive); in the assay on OVCAR-4 it was 6.41 µM (inactive); in the assay with HCC 2998, 1.28 µM (inactive); in the assay with OVCAR-8, 4.27 µM (inactive); with A498, 4.15 µM (inactive). For the same compound, the figures for the GI50 with NCI-H460, in the assay on CCRF-CEM and in the assay with SNB-19 were 3.09 µM (inactive), > 100 µM (inactive) and 2.88 µM (inactive), respectively.
With `CCCCCCCCCCCC(=O)OC[C@H](C[As](=O)(O)O)OC(=O)CCCCCCCCCCC`, the GI50 with MDA-MB-231 was 3.81 µM (inactive); in the assay with OVCAR-5, 18.2 µM (inactive); with HOP-92, 1.75 µM (inactive); with KM-20L2, 6.04 µM (inactive); with PC-3 it was 2.9 µM (inactive); in the assay on MOLT-4 it was 6.14 µM (inactive). Besides, the GI50 with HCT-116 was 8.89 µM (inactive); in the assay with SNB-75, 7.4 µM (inactive); in the assay with HCT-15, 8.26 µM; with T47D, 15.3 µM (inactive); in the assay on SK-MEL-28 it was 3.94 µM (inactive); in the assay on OVCAR-4 it was 17.7 µM (inactive). The GI50 in the assay with HCC 2998 was 8.13 µM (inactive); in the assay on MDA-MB-435 it was 2.64 µM (inactive); in the assay on OVCAR-8 it was 13 µM (inactive); in the assay with A498, 6.31 µM (inactive); with NCI-H460, 4.79 µM (inactive); with CCRF-CEM, 13.7 µM (inactive). Also, the results for the GI50 in the assay with Hs-578T and with SNB-19 were 2.78 µM (inactive) and 5.93 µM (inactive), respectively.
As to `CCC1(c2ccc(N)cc2)CCC(=O)NC1=O` (stereo not given) [AMINOGLUTETHIMIDE], the GI50 is 2610 µM (inactive) with MDA-MB-231; > 4920 µM (inactive) in the assay on OVCAR-5; 1030 µM (inactive) in the assay on HOP-92; 3940 µM (inactive) with KM-20L2; 1170 µM (inactive) in the assay on PC-3; 1440 µM (inactive) with MOLT-4. Also, the GI50 in the assay with HCT-116 was 2620 µM (inactive); with SNB-75, 1910 µM (inactive); in the assay on HCT-15, 2380 µM; with T47D, 2070 µM (inactive); in the assay with SK-MEL-28, 3610 µM (inactive); in the assay with OVCAR-4 it was 1970 µM (inactive). Further, the GI50 in the assay on HCC 2998 was 3680 µM (inactive); with MDA-MB-435, > 2740 µM (inactive); in the assay with OVCAR-8, 3270 µM (inactive); in the assay with A498, 2310 µM (inactive); in the assay on NCI-H460, 2580 µM (inactive); in the assay with CCRF-CEM, 665 µM (inactive). Besides, the GI50 is 1520 µM (inactive) in the assay on Hs-578T and 3350 µM (inactive) with SNB-19.
